In US20240360178A1, “MACROCYCLIC IMMUNOMODULATORS” (Bristol-Myers Squibb Company, priority 2021, published 2024) one finds IC50 data, which are given here for 15 compounds.

Positions of bridges follow the written chain, without caps; N, C: chain ends. Non-standard residues stand in square brackets, D forms with d. Residues, ends and D or L forms follow the SMILES beside them. ξ: configuration not given here. *: point of attachment. Bip = N[C@@H](Cc1ccc(-c2ccccc2)cc1)C(=O)O; Phe(3-Me) = Cc1cccc(C[C@H](N)C(=O)O)c1; NMeF = CN[C@@H](Cc1ccccc1)C(=O)O; Cha = N[C@@H](CC1CCCCC1)C(=O)O; Carboxymethyl = O=C(O)C*; NMeA = CN[C@@H](C)C(=O)O; Orn = NCCC[C@H](N)C(=O)O; Dab = NCC[C@H](N)C(=O)O; Dap = NC[C@H](N)C(=O)O; ξV = CC(C)C(N)C(=O)O; Sar = CNCC(=O)O

The target in this experiment is T1, human PD-1 (Jurkat-PD-1 cells) / PE-labeled human PD-L1-Ig (Homo sapiens, UniProt Q15116).
T1 construct: expressed in transfected cells; host or cells: Jurkat cell line over-expressing human PD-1
T1 sequence (Q15116 25-288): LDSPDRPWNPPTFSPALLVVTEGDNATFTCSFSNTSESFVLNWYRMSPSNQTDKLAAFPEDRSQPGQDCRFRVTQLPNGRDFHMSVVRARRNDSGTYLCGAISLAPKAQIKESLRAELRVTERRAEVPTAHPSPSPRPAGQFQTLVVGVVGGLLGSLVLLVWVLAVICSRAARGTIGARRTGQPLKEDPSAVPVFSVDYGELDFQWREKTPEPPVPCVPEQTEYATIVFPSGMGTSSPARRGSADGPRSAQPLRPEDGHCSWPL
The experiment is described as follows: Jurkat-PD-1 Cell Binding High-Content Screening Assay (CBA); Jurkat hPD1-PDL1 assay. Conditions: Jurkat cell line over-expressing human PD-1; PE-labeled PD-L1-Ig 20 nM final; compound incubated 2 hours at 37° C.; read-out: Jurkat HPD1-PDL1 IC50. The method, boiled down:
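Jurkat cells over-expressing human PD-1, seeded in DMEM with 10% fetal calf serum, were preincubated with compound for 2 hours at 37° C. PE-labeled human PD-L1-Ig was then added at 20 nM final, and cell-bound fluorescence was read by high-content imaging.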

What is called IC50 is the concentration that inhibits the measured activity by half. Consider `CC(C)C[C@@H]1NC(=O)[C@H](Cc2c[nH]c3ccccc23)NC(=O)[C@H](CC(=O)O)NC(=O)[C@H](Cc2ccc(O)cc2)NC(=O)[C@H](Cc2ccccc2)NC(=O)CSC[C@@H](C(=O)N[C@@H](C)C(N)=O)NC(=O)[C@H](CO)NC(=O)[C@H](C(C)C)NC(=O)[C@H](CC(C)C)NC(=O)[C@H](CCC(=O)O)NC(=O)[C@H]2CCCN2C(=O)[C@H](C)N(C)C(=O)[C@H](CCC(=O)O)NC(=O)[C@H](Cc2ccc(-c3ccccc3)cc2)NC1=O` [Example 1177] ({CH2CO}-FYDWL[Bip]E[NMeA][dP]ELVSCA-NH2; thioether N-14), for which the IC50 is 240 nM.

In the case of `CC(C)C[C@@H]1NC(=O)[C@H](CCCNC(=N)N)NC(=O)CN(C)C(=O)[C@H](C)N(C)C(=O)[C@H](C(C)C)NC(=O)[C@H](Cc2ccc(-c3ccccc3)cc2)NC(=O)[C@H](C(C)C)NC(=O)[C@H](Cc2c[nH]c3ccccc23)NC(=O)[C@H](CC(=O)O)NC(=O)[C@H](Cc2ccc(O)cc2)NC(=O)[C@H](Cc2ccccc2)NC(=O)CSC[C@@H](C(=O)NCC(N)=O)NC(=O)[C@H](CO)NC(=O)[C@H](C(C)C)NC1=O` [Example 1230] ({CH2CO}-FYDWV[Bip]V[NMeA][Sar]RLVSCG-NH2; thioether N-14), the IC50 amounted to 60 nM.

Turning to `CC(C)C[C@@H]1NC(=O)[C@H](Cc2c[nH]c3ccccc23)NC(=O)[C@H](CC(=O)O)NC(=O)[C@H](Cc2ccc(O)cc2)NC(=O)[C@H](Cc2ccccc2)NC(=O)CSC[C@@H](C(=O)NCC(N)=O)NC(=O)[C@H](CO)NC(=O)[C@H](C(C)C)NC(=O)[C@H](CC(C)C)NC(=O)[C@H](CCN)NC(=O)[C@H]2CCCN2C(=O)[C@H](CCN)NC(=O)[C@H](C(C)C)NC(=O)[C@H](Cc2ccc(-c3ccccc3)cc2)NC1=O` [Example 1417] ({CH2CO}-FYDWL[Bip]V[Dab][dP][Dab]LVSCG-NH2; thioether N-14), the IC50 stood at 70 nM.

`CC(C)C[C@@H]1NC(=O)[C@H](Cc2c[nH]c3ccccc23)NC(=O)[C@H](CC(=O)O)NC(=O)[C@H](Cc2ccc(O)cc2)NC(=O)[C@H](Cc2ccccc2)NC(=O)CSC[C@@H](C(=O)N[C@@H](C)C(N)=O)NC(=O)[C@H](CO)NC(=O)[C@H](C(C)C)NC(=O)[C@H](CC(C)C)NC(=O)[C@H](CCCCN)NC(=O)CN(C)C(=O)[C@H](C)N(C)C(=O)[C@H](C(C)C)NC(=O)[C@H](Cc2ccc(-c3ccccc3)cc2)NC1=O` [Example 1099] ({CH2CO}-FYDWL[Bip]V[NMeA][Sar]KLVSCA-NH2; thioether N-14): the IC50 turned out to be 310 nM.

As for `CC(C)C[C@@H]1NC(=O)[C@H](Cc2c[nH]c3ccccc23)NC(=O)[C@H](CC(=O)O)NC(=O)[C@H](Cc2ccc(OCC(=O)O)cc2)NC(=O)[C@H](CN)NC(=O)CSC[C@@H](C(=O)N[C@@H](C)C(N)=O)NC(=O)[C@H](CO)NC(=O)[C@H](C(C)C)NC(=O)[C@H](CC(C)C)NC(=O)[C@H](CC(N)=O)NC(=O)[C@H]2CCCN2C(=O)[C@H](C)N(C)C(=O)[C@H](C(C)C)NC(=O)[C@H](Cc2ccc(-c3ccccc3)cc2)NC1=O` [Example 1386] ({CH2CO}-[Dap]Y(Carboxymethyl)DWL[Bip]V[NMeA][dP]NLVSCA-NH2; thioether N-14), the IC50 worked out at 140 nM.

On to `CC(C)C[C@@H]1NC(=O)[C@H](CCCNC(=N)N)NC(=O)[C@H](Cc2ccccc2)N(C)C(=O)[C@H](C)N(C)C(=O)[C@H](CCCNC(=N)N)NC(=O)[C@H](Cc2ccc(-c3ccccc3)cc2)NC(=O)[C@H](C(C)C)NC(=O)[C@H](Cc2c[nH]c3ccccc23)NC(=O)[C@H](CC(=O)O)NC(=O)[C@H](Cc2ccc(O)cc2)NC(=O)[C@H](Cc2ccccc2)N(C)C(=O)CSC[C@@H](C(=O)NCC(N)=O)NC(=O)[C@H](CO)NC(=O)[C@H](C(C)C)NC1=O` [Example 1250] ({CH2CO}-[NMeF]YDWV[Bip]R[NMeA][NMeF]RLVSCG-NH2; thioether N-14), for which the IC50 is 320 nM.

Regarding `Cc1cccc(C[C@@H]2NC(=O)[C@H](CC(=O)O)NC(=O)[C@H](Cc3ccc(OCC(=O)O)cc3)NC(=O)[C@H](CN)NC(=O)CSC[C@@H](C(=O)N[C@@H](C)C(N)=O)NC(=O)[C@H]([C@@H](C)O)NC(=O)[C@H](C(C)C)NC(=O)[C@H](CC3CCCCC3)NC(=O)[C@H](CCN)NC(=O)[C@H](Cc3ccccc3)N(C)C(=O)[C@H](CCCN)NC(=O)[C@H](CCC(=O)O)NC(=O)[C@H](Cc3ccc(-c4ccccc4)cc3)NC(=O)C(C(C)C)NC2=O)c1` (stereo partly drawn) [Example 1448] ({CH2CO}-[Dap]Y(Carboxymethyl)D[Phe(3-Me)][ξV][Bip]E[Orn][NMeF][Dab][Cha]VTCA-NH2; thioether N-14), the IC50 came out at 30 nM.

Turning to `CC(C)C[C@@H]1NC(=O)[C@H](CCCNC(=N)N)NC(=O)[C@H](Cc2ccccc2)N(C)C(=O)[C@H](C)N(C)C(=O)[C@H](CCCNC(=N)N)NC(=O)[C@H](Cc2ccc(-c3ccccc3)cc2)NC(=O)[C@H](C(C)C)NC(=O)[C@H](Cc2c[nH]c3ccccc23)NC(=O)[C@H](CC(=O)O)NC(=O)[C@H](Cc2ccc(O)cc2)NC(=O)[C@H](CCC(N)=O)NC(=O)CSC[C@@H](C(=O)NCC(N)=O)NC(=O)[C@H]([C@@H](C)O)NC(=O)[C@H](C(C)C)NC1=O` [Example 1311] ({CH2CO}-QYDWV[Bip]R[NMeA][NMeF]RLVTCG-NH2; thioether N-14), the IC50 is 750 nM.

Turning to `CC(C)C[C@@H]1NC(=O)[C@H](CC(N)=O)NC(=O)CN(C)C(=O)[C@H](C)N(C)C(=O)[C@H](C(C)C)NC(=O)[C@H](Cc2ccc(-c3ccccc3)cc2)NC(=O)[C@H](CC2CCCCC2)NC(=O)[C@H](Cc2c[nH]c3ccccc23)NC(=O)[C@H](CC(=O)O)NC(=O)[C@H](Cc2ccc(O)cc2)NC(=O)[C@H](Cc2ccccc2)NC(=O)CSC[C@@H](C(=O)NCC(N)=O)NC(=O)[C@H](CO)NC(=O)[C@H](C(C)C)NC1=O` [Example 1145] ({CH2CO}-FYDW[Cha][Bip]V[NMeA][Sar]NLVSCG-NH2; thioether N-14), the IC50 worked out at 640 nM.

Turning to `CC(C)C[C@@H]1NC(=O)[C@H](CCN)NC(=O)[C@H](Cc2ccccc2)N(C)C(=O)[C@H](C)N(C)C(=O)[C@H](CCC(=O)O)NC(=O)[C@H](Cc2ccc(-c3ccccc3)cc2)NC(=O)[C@H](C(C)C)NC(=O)[C@H](Cc2c[nH]c3ccccc23)NC(=O)[C@H](CC(=O)O)NC(=O)[C@H](Cc2ccc(O)cc2)NC(=O)[C@H](CC(N)=O)NC(=O)CSC[C@@H](C(=O)N[C@@H](C)C(N)=O)NC(=O)[C@H](CCCN)NC(=O)[C@H](C(C)C)NC1=O` [Example 1380] ({CH2CO}-NYDWV[Bip]E[NMeA][NMeF][Dab]LV[Orn]CA-NH2; thioether N-14), the IC50 worked out at 70 nM.

As to `CC(C)C[C@@H]1NC(=O)[C@H](Cc2c[nH]c3ccccc23)NC(=O)[C@H](CC(=O)O)NC(=O)[C@H](Cc2ccc(O)cc2)NC(=O)[C@H](CC(N)=O)NC(=O)CSC[C@@H](C(=O)N[C@@H](C)C(N)=O)NC(=O)[C@H](CO)NC(=O)[C@H](C(C)C)NC(=O)[C@H](CC(C)C)NC(=O)[C@H](CCN)NC(=O)[C@H]2CCCN2C(=O)[C@H](CCCN)NC(=O)[C@H](C(C)C)NC(=O)[C@H](Cc2ccc(-c3ccccc3)cc2)NC1=O` [Example 1401] ({CH2CO}-NYDWL[Bip]V[Orn][dP][Dab]LVSCA-NH2; thioether N-14), the IC50 was 170 nM.

As for `CC(C)C[C@@H]1NC(=O)[C@H](CCCNC(=N)N)NC(=O)[C@H]2CCCN2C(=O)[C@H](C)N(C)C(=O)[C@H](C(C)C)NC(=O)[C@H](Cc2ccc(-c3ccccc3)cc2)NC(=O)[C@H](C(C)C)NC(=O)[C@H](Cc2c[nH]c3ccccc23)NC(=O)[C@H](CC(=O)O)NC(=O)[C@H](Cc2ccc(O)cc2)NC(=O)[C@H](Cc2ccccc2)NC(=O)CSC[C@@H](C(=O)N[C@@H](C)C(N)=O)NC(=O)[C@H](CO)NC(=O)[C@H](C(C)C)NC1=O` [Example 1075] ({CH2CO}-FYDWV[Bip]V[NMeA][dP]RLVSCA-NH2; thioether N-14), the IC50 was determined as 200 nM.

For the compound `CC(C)C[C@@H]1NC(=O)[C@H](Cc2c[nH]c3ccccc23)NC(=O)[C@H](CC(=O)O)NC(=O)[C@H](Cc2ccc(O)cc2)NC(=O)[C@H](Cc2ccccc2)NC(=O)CSC[C@@H](C(=O)N[C@@H](C)C(N)=O)NC(=O)[C@H]([C@@H](C)O)NC(=O)[C@H](C(C)C)NC(=O)[C@H](CC(C)C)NC(=O)[C@H](CC(N)=O)NC(=O)[C@H]2CCCN2C(=O)[C@H](C)N(C)C(=O)[C@H](C(C)C)NC(=O)[C@H](Cc2ccc(-c3ccccc3)cc2)NC1=O` [Example 1050] ({CH2CO}-FYDWL[Bip]V[NMeA][dP]NLVTCA-NH2; thioether N-14), the IC50 worked out at 110 nM.

For the compound `CC(C)C[C@@H]1NC(=O)[C@H](CCCNC(=N)N)NC(=O)[C@H](Cc2ccccc2)N(C)C(=O)[C@H](C)N(C)C(=O)[C@H](CCCNC(=N)N)NC(=O)[C@H](Cc2ccc(-c3ccccc3)cc2)NC(=O)[C@H](C(C)C)NC(=O)[C@H](Cc2c[nH]c3ccccc23)NC(=O)[C@H](CC(=O)O)NC(=O)[C@H](Cc2ccccc2)NC(=O)[C@H](Cc2ccccc2)NC(=O)CSC[C@@H](C(=O)NCC(N)=O)NC(=O)[C@H](CO)NC(=O)[C@H](C(C)C)NC1=O` [Example 1238] ({CH2CO}-FFDWV[Bip]R[NMeA][NMeF]RLVSCG-NH2; thioether N-14), the IC50 was determined as 170 nM.

Consider `CC(C)C[C@@H]1NC(=O)[C@H](CC(N)=O)NC(=O)CN(C)C(=O)[C@H](C)N(C)C(=O)[C@H](C(C)C)NC(=O)[C@H](Cc2ccc(-c3ccccc3)cc2)NC(=O)[C@H](CC(C)C)NC(=O)[C@H](Cc2c[nH]c3ccccc23)NC(=O)[C@H](CC(=O)O)NC(=O)[C@H](Cc2ccc(O)cc2)NC(=O)[C@H](Cc2ccccc2)NC(=O)CSC[C@@H](C(=O)NCC(N)=O)NC(=O)[C@H](CO)NC(=O)[C@H](C)NC1=O` [Example 1111] ({CH2CO}-FYDWL[Bip]V[NMeA][Sar]NLASCG-NH2; thioether N-14), for which the IC50 is 350 nM.
